Test results as given in patent publication US20240366523A1, “PATCH AND PRODUCTION METHOD THEREOF” (KANEKA CORPORATION, priority 2021, published 2024).

Experiment: Kinematic viscosity of non-volatile hydrocarbon oil
Assay type: physicochemical
Settings: viscosity measuring temperature 40 ° C.
Description: The “kinematic viscosity” is a value obtained by converting a viscosity (mPa·s) measured according to “Method II Viscosity measurement by rotational viscometer (2.12 Single cylinder-type rotational viscometer (Brookfield type viscometer)” in “2.53 Viscosity Determination” of General Tests in “Japanese Pharmacopoeia 17th Edition” into a kinematic viscosity.

- Kinematic viscosity: 20.5 mm^2/s
SMILES: CC(C)CCCC(C)CCCC(C)CCCCC(C)CCCC(C)CCCC(C)C (stereo not shown) [SQUALANE]
